Results on one compound are retold here after ChEMBL document CHEMBL4028827, “Discovery of indazole aldosterone synthase (CYP11B2) inhibitors as potential treatments for hypertension” (Bioorg Med Chem Lett, 2017).

The target of series [1] is T1, Cytochrome P450 11B1, mitochondrial (Homo sapiens, UniProt P15538).
T1 sequence (P15538 whole entry): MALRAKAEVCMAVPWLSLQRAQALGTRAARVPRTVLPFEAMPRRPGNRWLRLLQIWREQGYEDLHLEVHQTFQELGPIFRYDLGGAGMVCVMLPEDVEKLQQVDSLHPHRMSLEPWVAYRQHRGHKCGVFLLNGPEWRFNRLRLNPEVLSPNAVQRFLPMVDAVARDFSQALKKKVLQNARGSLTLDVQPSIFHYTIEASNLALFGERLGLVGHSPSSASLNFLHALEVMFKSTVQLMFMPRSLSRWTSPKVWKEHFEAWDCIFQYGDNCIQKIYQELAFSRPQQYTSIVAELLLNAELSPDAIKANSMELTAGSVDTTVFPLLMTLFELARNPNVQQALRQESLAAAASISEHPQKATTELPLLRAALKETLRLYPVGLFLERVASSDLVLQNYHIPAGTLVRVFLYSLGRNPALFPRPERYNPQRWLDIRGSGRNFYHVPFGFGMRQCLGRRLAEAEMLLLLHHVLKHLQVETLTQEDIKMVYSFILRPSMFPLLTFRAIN
The series is described as follows: Inhibition of human CYP11B1-8C7 expressed in Chinese hamster V79 cells using 11-deoxycortisol as substrate preincubated for 1 hr followed by substrate addition measured for 3 hrs by HTRF assay. Type of series: ADME, cell-based. For orientation: TR-FRET usually uses a lanthanide donor and a delayed reading to cut background.

The nature of series [2]: Selectivity ratio of IC50 for human CYP11B1-8C7 expressed in Chinese hamster V79 cells to IC50 for human CYP11B2-CLE9 expressed in Chinese hamster V79 cells.
A short description of series [3]: Plasma clearance in Sprague-Dawley rat at 1 mg/kg, iv or 2 mg/kg, po administered via gavage by LC-MS/MS analysis. It counts as ADME, organism-based.
The nature of series [4]: Volume of distribution in Sprague-Dawley rat at 1 mg/kg, iv or 2 mg/kg, po administered via gavage by LC-MS/MS analysis. The note with it: in vivo. Type of series: ADME, organism-based.
The next series deals with T2, Steroid 21-hydroxylase (Homo sapiens, UniProt P08686).
T2 sequence (P08686 whole entry): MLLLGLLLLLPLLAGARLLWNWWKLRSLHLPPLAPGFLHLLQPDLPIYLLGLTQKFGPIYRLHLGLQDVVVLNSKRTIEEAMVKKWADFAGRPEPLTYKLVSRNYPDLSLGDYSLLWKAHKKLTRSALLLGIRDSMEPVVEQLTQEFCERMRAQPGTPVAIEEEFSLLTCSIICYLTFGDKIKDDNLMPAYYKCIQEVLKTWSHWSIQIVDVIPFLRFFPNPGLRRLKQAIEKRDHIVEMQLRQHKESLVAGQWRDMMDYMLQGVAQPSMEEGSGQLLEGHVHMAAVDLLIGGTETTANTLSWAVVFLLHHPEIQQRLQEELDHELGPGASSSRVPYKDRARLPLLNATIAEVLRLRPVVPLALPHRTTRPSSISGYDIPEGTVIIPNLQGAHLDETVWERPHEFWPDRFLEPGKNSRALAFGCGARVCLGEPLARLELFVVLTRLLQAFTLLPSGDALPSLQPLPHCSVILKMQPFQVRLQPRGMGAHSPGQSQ
The series is described as follows: Inhibition of human CYP21 expressed in African green monkey COS7 cells using […] as substrate preincubated for 1 hr followed by substrate addition measured for 3 hrs by HTRF assay. It counts as cell-based.

The test system of a further series is Rattus norvegicus. Put plainly: Dose normalized AUC in Sprague-Dawley rat at 2 mg/kg, po administered via gavage by LC-MS/MS analysis. Type of series: ADME, organism-based. The note with it: in vivo.
The target of series [5] is T3, Steroid 17-alpha-hydroxylase/17,20 lyase (Homo sapiens, UniProt P05093).
T3 sequence (P05093 whole entry): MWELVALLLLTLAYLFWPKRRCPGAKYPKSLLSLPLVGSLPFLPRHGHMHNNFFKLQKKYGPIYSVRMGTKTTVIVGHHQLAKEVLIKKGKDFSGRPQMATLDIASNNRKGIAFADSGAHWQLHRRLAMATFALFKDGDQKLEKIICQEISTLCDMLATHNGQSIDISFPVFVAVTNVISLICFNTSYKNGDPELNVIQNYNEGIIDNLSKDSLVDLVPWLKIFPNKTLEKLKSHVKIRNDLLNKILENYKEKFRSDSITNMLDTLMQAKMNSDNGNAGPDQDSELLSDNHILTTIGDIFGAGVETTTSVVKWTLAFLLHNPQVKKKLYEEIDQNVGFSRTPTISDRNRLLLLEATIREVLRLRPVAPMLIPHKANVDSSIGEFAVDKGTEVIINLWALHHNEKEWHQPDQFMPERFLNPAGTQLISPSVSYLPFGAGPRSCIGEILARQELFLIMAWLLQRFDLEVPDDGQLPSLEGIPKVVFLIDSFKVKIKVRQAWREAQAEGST
The series is described as follows: Inhibition of human CYP17 expressed in African green monkey COS7 cells using 17-hydroxypregnenolone as substrate preincubated for 1 hr followed by substrate addition measured after 3 hrs by EIA. It counts as cell-based.

The target in the next series is Cytochrome P450 2C9 (Homo sapiens, UniProt P11712). Put plainly: Inhibition of hepatic CYP2C9 (unknown origin). It counts as ADME.
Sequence of Cytochrome P450 2C9 (P11712 whole entry): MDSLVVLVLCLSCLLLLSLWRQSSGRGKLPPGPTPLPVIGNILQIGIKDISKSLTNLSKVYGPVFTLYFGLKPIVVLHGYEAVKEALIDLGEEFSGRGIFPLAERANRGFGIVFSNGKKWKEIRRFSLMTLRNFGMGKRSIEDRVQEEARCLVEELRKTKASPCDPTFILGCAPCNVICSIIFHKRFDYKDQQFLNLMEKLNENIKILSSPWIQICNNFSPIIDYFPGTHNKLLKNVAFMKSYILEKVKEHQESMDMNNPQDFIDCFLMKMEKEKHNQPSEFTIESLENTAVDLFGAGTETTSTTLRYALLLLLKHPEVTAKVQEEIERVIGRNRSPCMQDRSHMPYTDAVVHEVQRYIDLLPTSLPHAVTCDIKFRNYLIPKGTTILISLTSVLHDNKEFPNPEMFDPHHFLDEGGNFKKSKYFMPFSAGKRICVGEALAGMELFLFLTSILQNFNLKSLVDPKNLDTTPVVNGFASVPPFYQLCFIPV
Series [6] is described as follows: Oral bioavailability in Sprague-Dawley rat at 2 mg/kg administered via gavage by LC-MS/MS analysis. It counts as ADME, organism-based. The note with it: in vivo.
The next series concerns the target Cytochrome P450 3A4 (Homo sapiens, UniProt P08684). The series is described as follows: Inhibition of hepatic CYP3A4 (unknown origin). It counts as ADME.
For another series, the target named is Cytochrome P450 2D6 (Homo sapiens, UniProt P10635). Put plainly: Inhibition of hepatic CYP2D6 (unknown origin). It counts as ADME.
Sequence of Cytochrome P450 2D6 (P10635 whole entry): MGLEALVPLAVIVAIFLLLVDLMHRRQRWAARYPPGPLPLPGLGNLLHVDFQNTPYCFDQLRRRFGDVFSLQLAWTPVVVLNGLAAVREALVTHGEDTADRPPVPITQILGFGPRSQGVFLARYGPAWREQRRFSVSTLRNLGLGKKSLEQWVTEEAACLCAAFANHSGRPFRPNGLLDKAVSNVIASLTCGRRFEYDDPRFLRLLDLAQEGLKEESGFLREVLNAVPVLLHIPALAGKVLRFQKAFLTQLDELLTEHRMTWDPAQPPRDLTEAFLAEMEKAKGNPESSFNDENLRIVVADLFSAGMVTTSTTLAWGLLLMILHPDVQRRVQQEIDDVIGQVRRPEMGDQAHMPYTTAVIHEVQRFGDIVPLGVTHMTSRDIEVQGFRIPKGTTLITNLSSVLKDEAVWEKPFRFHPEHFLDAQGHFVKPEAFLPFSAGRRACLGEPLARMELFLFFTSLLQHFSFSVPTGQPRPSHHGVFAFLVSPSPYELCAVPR
Series [7] is described as follows: Intrinsic clearance in rat liver microsomes at […] preincubated for 10 mins followed by NADPH addition measured after 45 mins by LC-MS analysis. The note with it: read-out: CLH. Type of series: ADME, microsome. (Liver microsomes are vesicles of endoplasmic reticulum, rich in cytochrome P450 enzymes.)
Series [8] in a line: Selectivity ratio of IC50 for hepatic CYP2D6 (unknown origin) to IC50 for human CYP11B2-CLE9 expressed in Chinese hamster V79 cells.
Series [9] can be described thus: Half life in Sprague-Dawley rat at 1 mg/kg, iv or 2 mg/kg, po administered via gavage by LC-MS/MS analysis. It counts as ADME, organism-based. The note with it: in vivo.
The target in another series is T4, Aromatase (Homo sapiens, UniProt P11511).
T4 sequence (P11511 whole entry): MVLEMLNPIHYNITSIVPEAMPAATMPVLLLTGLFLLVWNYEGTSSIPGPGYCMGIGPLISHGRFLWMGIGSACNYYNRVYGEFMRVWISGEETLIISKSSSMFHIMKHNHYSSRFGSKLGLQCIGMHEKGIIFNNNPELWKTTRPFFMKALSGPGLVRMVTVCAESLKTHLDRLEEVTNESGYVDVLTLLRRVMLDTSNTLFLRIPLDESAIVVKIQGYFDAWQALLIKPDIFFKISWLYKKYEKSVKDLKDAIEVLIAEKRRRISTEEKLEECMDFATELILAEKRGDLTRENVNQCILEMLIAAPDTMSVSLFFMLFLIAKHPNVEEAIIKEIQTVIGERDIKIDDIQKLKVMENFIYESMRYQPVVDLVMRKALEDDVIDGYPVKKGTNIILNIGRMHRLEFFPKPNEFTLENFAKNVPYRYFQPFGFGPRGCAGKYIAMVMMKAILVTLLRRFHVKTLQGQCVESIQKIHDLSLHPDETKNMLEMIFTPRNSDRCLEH
The series is described as follows: Inhibition of CYP19 (unknown origin) using MFC as substrate and NADPH as cofactor preincubated for 10 mins with cofactor followed by substrate/enzyme addition measured after 30 mins.

As a reminder, the IC50 is the concentration needed to halve the response being measured. As usually defined, the bioavailability is dose-corrected exposure relative to a reference, in per cent. For orientation: half-life means the time in which the quantity being followed falls by half.

A value given as a limit tells only on which side of the number the result lay.

Sequence of Cytochrome P450 3A4 (P08684 whole entry): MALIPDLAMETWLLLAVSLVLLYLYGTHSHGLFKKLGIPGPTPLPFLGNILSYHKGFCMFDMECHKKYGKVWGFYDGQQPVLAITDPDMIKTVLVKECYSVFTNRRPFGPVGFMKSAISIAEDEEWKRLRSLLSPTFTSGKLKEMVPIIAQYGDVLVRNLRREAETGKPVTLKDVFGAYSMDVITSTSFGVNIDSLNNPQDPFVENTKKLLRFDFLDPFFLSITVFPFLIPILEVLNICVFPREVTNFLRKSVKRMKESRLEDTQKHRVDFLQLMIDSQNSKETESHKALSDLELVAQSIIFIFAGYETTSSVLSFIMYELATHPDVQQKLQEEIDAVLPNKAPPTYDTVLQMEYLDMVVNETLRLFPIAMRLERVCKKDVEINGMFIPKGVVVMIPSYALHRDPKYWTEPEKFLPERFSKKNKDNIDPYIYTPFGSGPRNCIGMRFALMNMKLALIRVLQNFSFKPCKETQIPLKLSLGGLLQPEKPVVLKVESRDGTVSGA

In the case of `CC(C)(O)c1cncc(-n2ncc3c(C(F)(F)F)cccc32)c1`, the IC50 in [1] is 0.098 to 0.0983 µM; at Steroid 21-hydroxylase, above 10 µM; in series [5] it was above 10 µM; on Cytochrome P450 2C9 it was 9.1 µM; against Cytochrome P450 3A4 it was 43 µM; on Cytochrome P450 2D6 it was 2.8 µM. At Aromatase, this compound registered an IC50 of 4.6 µM. Besides, the “Ratio IC50” value is listed as 44 in series [2] and above 1000 in [8]. Besides, the clearance in series [3] was 14 mL/min/kg. Further, the Vd in series [4] worked out at 6.3 L/kg. In addition, the AUC/dose with Rattus norvegicus is 0.85 µM·kg·h/mg. This compound displayed a bioavailability in [6] of 28%. Also, the CLint scaled in series [7] was below 20 mL/min/kg. The half-life in [9] was 7.6 h.
